Values of other authors in patent publication US20210186880A1, “ORAL FORMULATIONS WITH INCREASED UPTAKE” (Brown University, priority 2018, published 2021).
Where two headings read alike, the source gives them in different places.

Experiments:
GLP-1 receptor [1] = biological target: T1, GLP-1 receptor (Homo sapiens, UniProt P43220)
GLP-1 receptor [2] = biological target: T1, GLP-1 receptor; remark: listed apart in the source
[3] = oral
[4] = in vivo

T1 sequence (P43220 24-463, species assumed): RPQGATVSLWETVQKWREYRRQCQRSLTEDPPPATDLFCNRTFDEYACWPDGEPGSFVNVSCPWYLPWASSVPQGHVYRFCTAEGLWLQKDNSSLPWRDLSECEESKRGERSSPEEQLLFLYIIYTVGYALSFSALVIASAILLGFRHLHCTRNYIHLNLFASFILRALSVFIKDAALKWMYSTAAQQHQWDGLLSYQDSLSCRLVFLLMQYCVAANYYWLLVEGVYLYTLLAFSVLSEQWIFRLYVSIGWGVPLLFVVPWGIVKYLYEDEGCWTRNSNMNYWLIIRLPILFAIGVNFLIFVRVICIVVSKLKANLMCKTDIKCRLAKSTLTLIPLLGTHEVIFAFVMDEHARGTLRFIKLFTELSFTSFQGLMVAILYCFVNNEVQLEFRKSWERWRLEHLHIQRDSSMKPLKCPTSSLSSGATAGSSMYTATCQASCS

## GLP-1(9-36)-NH2
GLP-1 receptor [1]
  binding affinity compared to the intact peptide, lower: 100 fold
GLP-1 receptor [2]
  agonistic activity, decrease: > 10000 fold

## Glucagon-like peptide-1 [GLP-1]
[3]
  ghrelin secretion: suppressed ghrelin secretion
  insulin release: potent effect on insulin release
[3]; dose-escalating
  plasma drug concentrations: rapid and dose-dependent increase in plasma drug concentrations
[3]; doses of 0.5, 1.0, 2.0, and 4.0 mg
  bioavailabilities: lower than 10%
[3]; relative to intravenous administration
  mean absolute bioavailability: 4%
Continuous 48-hour subcutaneous infusion, ~4-8 ng·kg^−1·min^−1
  fasting and postprandial glucose values: lowered fasting and postprandial glucose values

## rGLP-1: rGLP-1 infused at 1.25-8.5 pmol/kg/min in a cited study
1.25 pmol/kg/min
  fasting serum glucose decrease: 22.7 mg/dL
2.5 pmol/kg/min
  fasting serum glucose decrease: 37.0 mg/dL
5.0 pmol/kg/min
  fasting serum glucose decrease: 53.9 mg/dL
8.5 pmol/kg/min
  fasting serum glucose decrease: 76.2 mg/dL

## semaglutide: GLP-1 analog acylated with a spacer and C-18 fatty di-acid chain
[4]
  plasma half-life: long
